biological target: T1, PGI2 receptor (Homo sapiens, UniProt P43119); assay: PGI2 receptor binding/cAMP in HEL cells (in vitro activity grade); conditions: compounds of purity about 40 to 90%
T1 construct: host or cells: HEL 92.1.7 human erythroleukemia cells (whole cells)
Procedure: [Measurement of the [^3H]-Iloprost Binding to HEL Cells] (Assay 1) A human erythloleukemia cell line, HEL 92.1.7, was purchased from American Type Culture Correction and maintained in RPMI-1640 medium (Gibco BRL) supplemented with 10% fetal calf serum (FCS), 2 mM glutamine, 4.5 g/L glucose, 10 mM Hepes, 1 mM sodium pyruvate, 100 U/ml penicillin, and 100 μg/ml streptomycin in a humidified 5% CO2 atmosphere at 37° C. Cells were collected with centrifugation and washed with binding assay buffer (BAB: 50 mM Tris-HCl, 5 mM MgCl2 (pH 7.5)). Cells were suspended at the density of 6.25×10^6 cells/ml in BAB, and one million cells in 160 μl aliquot of cell suspension were put in a well of 96 well plate (Falcon). Then, 20 μl of compound solution, 100 μM of iloprost (for non-specific binding), or buffer alone (total binding), diluted with 1% DMSO in BAB was added. Finally, another 20 μl containing [^3H]-iloprost (0.02 μCi, 0.5-1 pmol) in BAB was added and incubated at room temperature for 30 min with a gentle shaking. Cell suspension was then transferred to a well of MultiScreen plate with GF/C glass filters (Millipore) to harvest cells. Cells were washed twice with 200 μl of ice-cold BAB and the plate was kept at 55° C. for 30 min to dry filters. The filter in the well was punched out to a counting tube and 2 ml of Ultima Gold XR Packard) was added. [^3H]-radio activity in the filter was measured by a liquid scintillation counter (Beckman, USA). [Iloprost-Induced cAMP Production Assay in HEL Cells] (Assay 2) HEL cells were collected with centrifugation and washed with cAMP assay buffer (CAB: Hank's balanced salt solution, 17 mM Hepes, 0.1% bovine serum albumin, 1 mM IBMX, 0.4% DMSO, and 1 mM L-ascorbic acid sodium salt (pH 7.4)). Cells were suspended at the density of 2.5×10^5 cells/ml in CAB, and twenty thousand cells in 80 μl aliquot of cell suspension were put in a well of 96 well plate (Falcon). Then, 10 μl of compound solution diluted with 1% DMSO in CAB or buffer alone was added. The plate was incubated at 37° C. for 30 min. Then, another 10 μl containing 100 nM iloprost in CAB or buffer alone was added and further incubated at 37° C. for 30 min. cAMP content in the well was measured by, a cAMP ELISA kit (Applied Biosystems, USA). The data corresponds to the compounds as yielded by solid phase synthesis and thus to levels of purity of about 40 to 90%. For practical reasons, the compounds are grouped in three classes of activity as follows: In vitro activity grade=A≦0.1 μM<B≦1 μM<C

T1 sequence (P43119 whole entry): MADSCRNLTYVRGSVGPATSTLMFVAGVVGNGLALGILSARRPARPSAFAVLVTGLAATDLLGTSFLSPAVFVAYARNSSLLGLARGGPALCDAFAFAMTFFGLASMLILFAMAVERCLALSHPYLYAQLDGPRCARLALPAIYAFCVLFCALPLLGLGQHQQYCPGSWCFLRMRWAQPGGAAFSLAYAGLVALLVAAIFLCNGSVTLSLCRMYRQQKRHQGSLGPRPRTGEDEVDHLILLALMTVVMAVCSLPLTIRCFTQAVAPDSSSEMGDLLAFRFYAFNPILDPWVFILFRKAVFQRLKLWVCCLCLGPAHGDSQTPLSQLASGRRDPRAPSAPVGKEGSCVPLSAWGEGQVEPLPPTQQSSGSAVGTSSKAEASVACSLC

Row | In vitro activity grade | SMILES
1 | A (A≦0.1 μM) | O=C(NC(Cc1ccccc1)C(=O)O)c1cc(-c2ccc(OCc3ccccc3)cc2)[nH]n1 (stereo not shown) [Example 1-1, 2-{[5-(4-Benzyloxyphenyl)-1H-pyrazole-3-carbonyl]amino}-3-phenylpropionic acid]
2 | A (A≦0.1 μM) | O=C(NC(Cc1ccccc1)C(=O)O)c1cc(-c2ccc(OCc3ccccc3)cc2)on1 (stereo not shown) [Example 1-2, 2-{[5-(4-Benzyloxyphenyl)isoxazole-3-carbonyl]amino}-3-phenyl-propionic acid]
3 | A (A≦0.1 μM) | O=C(NC(Cc1ccccc1)C(=O)O)c1ccc(-c2ccc(OCc3ccccc3)cc2)cc1 (stereo not shown) [Example 3-1, 2-[(4′-Benzyloxy-biphenyl-4-carbonyl)-amino]-3-phenyl-propionic acid]
4 | A (A≦0.1 μM) | O=C(NC(Cc1ccccc1)C(=O)O)c1ccc(-c2ccc(OCc3ccccc3)cc2)nc1 (stereo not shown) [Example 4-1, 2-{[6-(4-benzyloxy-phenyl)-pyridine-3-carbonyl]-amino}-3-phenyl-propionic acid]
5 | A (A≦0.1 μM) | O=C(NC(Cc1ccccc1)C(=O)O)c1ccc(-c2cnc(OCc3ccccc3)nc2)cc1 (stereo not shown) [Example 5-1, 2-[4-(2-Benzyloxypyrimidin-5-yl)benzoylamino]-3-phenylpropionic acid]
6 | A (A≦0.1 μM) | Cc1cccc(COc2ccc(-c3ccc(C(=O)NC(Cc4ccccc4)C(=O)O)cc3)cc2)c1 (stereo not shown) [Example 8-1, 2-{[4′-(3-Methylbenzyloxy)biphenyl-4-carbonyl]amino}-3-phenylpropionic acid]
7 | B (0.1 μM<B≦1 μM) | O=C(NC(Cc1ccccc1)C(=O)O)c1ccc(-c2ccc(OCc3ccc([N+](=O)[O-])cc3)cc2)cc1 (stereo not shown) [Example 8-2]
8 | A (A≦0.1 μM) | O=C(NC(Cc1ccccc1)C(=O)O)c1ccc(-c2ccc(OCc3ccccc3F)cc2)cc1 (stereo not shown) [Example 8-3]
9 | A (A≦0.1 μM) | O=C(NC(Cc1ccccc1)C(=O)O)c1ccc(-c2ccc(OCc3cccc(F)c3)cc2)cc1 (stereo not shown) [Example 8-4]
10 | A (A≦0.1 μM) | O=C(NC(Cc1ccccc1)C(=O)O)c1ccc(-c2ccc(OCc3ccc(F)cc3)cc2)cc1 (stereo not shown) [Example 8-5]
11 | A (A≦0.1 μM) | O=C(NC(Cc1ccccc1)C(=O)O)c1ccc(-c2ccc(OCc3ccc(F)c(F)c3)cc2)cc1 (stereo not shown) [Example 8-6]
12 | A (A≦0.1 μM) | O=C(NC(Cc1ccccc1)C(=O)O)c1ccc(-c2ccc(OCc3c(Cl)cccc3Cl)cc2)cc1 (stereo not shown) [Example 8-7]
13 | C (1 μM<C) | O=C(NC(Cc1ccccc1)C(=O)O)c1ccc(-c2ccc(OCc3cc(Cl)cc(Cl)c3)cc2)cc1 (stereo not shown) [Example 8-8]
14 | C (1 μM<C) | O=C(NC(Cc1ccccc1)C(=O)O)c1ccc(-c2ccc(OCc3ccc(Cl)cc3Cl)cc2)cc1 (stereo not shown) [Example 8-9]
15 | B (0.1 μM<B≦1 μM) | O=C(NC(Cc1ccccc1)C(=O)O)c1ccc(-c2ccc(OCc3ccc(Cl)c(Cl)c3)cc2)cc1 (stereo not shown) [Example 8-10]
16 | A (A≦0.1 μM) | O=C(NC(Cc1ccccc1)C(=O)O)c1ccc(-c2ccc(OCc3cccc(Cl)c3Cl)cc2)cc1 (stereo not shown) [Example 8-11]
17 | B (0.1 μM<B≦1 μM) | O=C(NC(Cc1ccccc1)C(=O)O)c1ccc(-c2ccc(OCc3c(F)cccc3F)cc2)cc1 (stereo not shown) [Example 8-12]
18 | B (0.1 μM<B≦1 μM) | COc1ccccc1COc1ccc(-c2ccc(C(=O)NC(Cc3ccccc3)C(=O)O)cc2)cc1 (stereo not shown) [Example 8-13]
19 | A (A≦0.1 μM) | COc1cccc(COc2ccc(-c3ccc(C(=O)NC(Cc4ccccc4)C(=O)O)cc3)cc2)c1 (stereo not shown) [Example 8-14]
20 | B (0.1 μM<B≦1 μM) | COc1ccc(COc2ccc(-c3ccc(C(=O)NC(Cc4ccccc4)C(=O)O)cc3)cc2)cc1 (stereo not shown) [Example 8-15]
21 | C (1 μM<C) | COc1cc(COc2ccc(-c3ccc(C(=O)NC(Cc4ccccc4)C(=O)O)cc3)cc2)cc(OC)c1OC (stereo not shown) [Example 8-16]
22 | A (A≦0.1 μM) | O=C(NC(Cc1ccccc1)C(=O)O)c1ccc(-c2ccc(OCc3ccccc3Cl)cc2)cc1 (stereo not shown) [Example 8-17]
23 | A (A≦0.1 μM) | O=C(NC(Cc1ccccc1)C(=O)O)c1ccc(-c2ccc(OCc3ccc(F)cc3F)cc2)cc1 (stereo not shown) [Example 8-18]

Row | In vitro activity grade | SMILES
24 | B (0.1 μM<B≦1 μM) | Cc1ccc(COc2ccc(-c3ccc(C(=O)NC(Cc4ccccc4)C(=O)O)cc3)cc2)cc1 (stereo not shown) [Example 8-19]
25 | B (0.1 μM<B≦1 μM) | O=C(NC(Cc1ccccc1)C(=O)O)c1ccc(-c2ccc(OCc3cccc(C(F)(F)F)c3)cc2)cc1 (stereo not shown) [Example 8-20]
26 | C (1 μM<C) | O=C(NC(Cc1ccccc1)C(=O)O)c1ccc(-c2ccc(OCc3ccc(C(F)(F)F)cc3)cc2)cc1 (stereo not shown) [Example 8-21]
27 | A (A≦0.1 μM) | O=C(NC(Cc1ccccc1)C(=O)O)c1ccc(-c2ccc(OCc3cccc(Cl)c3)cc2)cc1 (stereo not shown) [Example 8-22]
28 | A (A≦0.1 μM) | COc1cc(COc2ccc(-c3ccc(C(=O)NC(Cc4ccccc4)C(=O)O)cc3)cc2)cc(OC)c1 (stereo not shown) [Example 8-23]
29 | A (A≦0.1 μM) | Cc1ccccc1COc1ccc(-c2ccc(C(=O)NC(Cc3ccccc3)C(=O)O)cc2)cc1 (stereo not shown) [Example 8-24]
30 | B (0.1 μM<B≦1 μM) | Cc1cc(C)cc(COc2ccc(-c3ccc(C(=O)NC(Cc4ccccc4)C(=O)O)cc3)cc2)c1 (stereo not shown) [Example 8-25]
31 | B (0.1 μM<B≦1 μM) | Cc1ccc(C)c(COc2ccc(-c3ccc(C(=O)NC(Cc4ccccc4)C(=O)O)cc3)cc2)c1 (stereo not shown) [Example 8-26]
32 | B (0.1 μM<B≦1 μM) | Cc1ccc(COc2ccc(-c3ccc(C(=O)NC(Cc4ccccc4)C(=O)O)cc3)cc2)c(C)c1 (stereo not shown) [Example 8-27]
33 | A (A≦0.1 μM) | O=C(NC(Cc1ccccc1)C(=O)O)c1ccc(-c2ccc(OCc3cccc([N+](=O)[O-])c3)cc2)cc1 (stereo not shown) [Example 8-28]
34 | C (1 μM<C) | O=C(NC(Cc1ccccc1)C(=O)O)c1ccc(-c2ccc(OCc3ccccc3OC(F)(F)F)cc2)cc1 (stereo not shown) [Example 8-29]
35 | C (1 μM<C) | O=C(NC(Cc1ccccc1)C(=O)O)c1ccc(-c2ccc(OCc3cccc(OC(F)(F)F)c3)cc2)cc1 (stereo not shown) [Example 8-30]
36 | C (1 μM<C) | O=C(NC(Cc1ccccc1)C(=O)O)c1ccc(-c2ccc(OCc3ccc(OC(F)(F)F)cc3)cc2)cc1 (stereo not shown) [Example 8-31]
37 | B (0.1 μM<B≦1 μM) | O=C(NC(Cc1ccccc1)C(=O)O)c1ccc(-c2ccc(OCc3ccc(Cl)cc3)cc2)cc1 (stereo not shown) [Example 8-32]
38 | B (0.1 μM<B≦1 μM) | O=C(NC(Cc1ccccc1)C(=O)O)c1ccc(-c2ccc(OCC3CCCCC3)cc2)cc1 (stereo not shown) [Example 8-33]
39 | B (0.1 μM<B≦1 μM) | O=C(NC(Cc1ccccc1)C(=O)O)c1ccc(-c2ccc(OCCCn3cccc3)cc2)cc1 (stereo not shown) [Example 8-34]
40 | A (A≦0.1 μM) | O=C(NC(Cc1ccccc1)C(=O)O)c1ccc(-c2ccc(OCCc3ccccc3)cc2)cc1 (stereo not shown) [Example 8-35]
41 | B (0.1 μM<B≦1 μM) | CC(Oc1ccc(-c2ccc(C(=O)NC(Cc3ccccc3)C(=O)O)cc2)cc1)c1ccccc1 (stereo not shown) [Example 8-36]
42 | B (0.1 μM<B≦1 μM) | O=C(NC(Cc1ccccc1)C(=O)O)c1ccc(-c2ccc(OCCCc3ccccc3)cc2)cc1 (stereo not shown) [Example 8-37]
43 | B (0.1 μM<B≦1 μM) | CCCCOc1ccc(-c2ccc(C(=O)NC(Cc3ccccc3)C(=O)O)cc2)cc1 (stereo not shown) [Example 8-38]
44 | A (A≦0.1 μM) | Nc1cccc(COc2ccc(-c3ccc(C(=O)NC(Cc4ccccc4)C(=O)O)cc3)cc2)c1 (stereo not shown) [Example 8-39]
45 | C (1 μM<C) | O=C(NC(Cc1ccccc1)C(=O)O)c1ccc(-c2ccc(OCCN3CCCCC3)cc2)cc1 (stereo not shown) [Example 8-40]

tested on: not given; assay: not given; conditions: not given

Row | melting point | SMILES
46 | 196 to 200 °C | O=C(NC(Cc1ccccc1)C(=O)O)c1cc(-c2ccc(OCc3ccccc3)cc2)[nH]n1 (stereo not shown) [Example 1-1, 2-{[5-(4-Benzyloxyphenyl)-1H-pyrazole-3-carbonyl]amino}-3-phenylpropionic acid]

From patent publication US20060247260A1, “Bis (hetero) aryl carboxamide derivatives for use as PG12 antagonists” (BAYER HEALTHCARE AG, priority 2003, published 2006)
